Drawing on ChEMBL document CHEMBL1133595, “Discovery of chiral N,N-disubstituted trifluoro-3-amino-2-propanols as potent inhibitors of cholesteryl ester transfer protein” (J Med Chem, 2000), this text covers IC50 for seven compounds.

What is called IC50 is the point on the concentration scale where inhibition reaches its midpoint.

Assay [1] deals with T1, Cholesteryl ester transfer protein (Homo sapiens, UniProt P11597).
T1 sequence (P11597 whole entry): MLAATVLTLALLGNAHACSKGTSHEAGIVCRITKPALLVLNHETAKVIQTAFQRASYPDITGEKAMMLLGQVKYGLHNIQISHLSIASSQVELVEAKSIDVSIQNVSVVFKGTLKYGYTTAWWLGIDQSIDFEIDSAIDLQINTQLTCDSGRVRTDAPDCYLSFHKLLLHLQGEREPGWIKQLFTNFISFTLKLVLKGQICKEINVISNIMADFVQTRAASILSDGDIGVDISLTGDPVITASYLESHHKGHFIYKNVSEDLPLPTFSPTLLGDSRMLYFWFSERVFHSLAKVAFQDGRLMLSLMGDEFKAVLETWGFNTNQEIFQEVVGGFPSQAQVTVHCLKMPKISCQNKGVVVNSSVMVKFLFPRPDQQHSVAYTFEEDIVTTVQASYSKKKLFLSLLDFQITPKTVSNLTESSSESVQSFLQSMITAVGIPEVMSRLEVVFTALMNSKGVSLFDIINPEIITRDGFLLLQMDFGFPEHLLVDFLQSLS
Description: Inhibition of recombinant human CETP-mediated transfer of [3H]CE from HDL to LDL.

Assay [2] has as its target T1, Cholesteryl ester transfer protein. Description: Tested for inhibiting CETP-mediated transfer of [3H]-CE from HDL to LDL in vitro under buffered assay conditions in human serum. The assay is classed as cell-free.

Each structure is given as a SMILES string.

With `OC(CN(Cc1cccc(C(F)(F)F)c1)c1cccc(F)c1)C(F)(F)F` (stereo not drawn), the IC50 was 40 µM in assay [1] and more than 200 µM in assay [2].
Turning to `COc1cc(N(Cc2cccc(SC(F)(F)F)c2)C[C@@H](O)C(F)(F)F)cc(OC)c1OC`, the IC50 in assay [1] is 5 µM.
Same read-out and setting: next, `OC(CN(Cc1ccccc1)c1cccc(F)c1)C(F)(F)F` (stereo not drawn): more than 100 µM.
Regarding `OC(CN(Cc1ccc(OC(F)(F)F)cc1)c1cccc(Oc2ccccc2)c1)C(F)(F)F` (stereo not drawn), the IC50 in assay [1] came out at 4 µM.
With `OC(CN(Cc1cccc(C(F)(F)F)c1)c1ccccc1)C(F)(F)F` (stereo not drawn), the IC50 in assay [1] was 15 µM.
Still for that read-out and setting: next, `Cc1cccc(CN(CC(O)C(F)(F)F)c2cccc(F)c2)c1` (stereo not drawn): more than 100 µM; `OC(CN(Cc1ccccc1C(F)(F)F)c1cccc(F)c1)C(F)(F)F` (stereo not drawn): more than 100 µM.
